The target in the test is T1, calpain-I isolated from human erythrocytes (Homo sapiens, UniProt P07384).
T1 construct: calpain-I—isolated from human erythrocytes (Calbiochem #208713); purchased Calbiochem 208713; host or cells: human erythrocytes (native tissue isolate)
T1 sequence (P07384 1-714): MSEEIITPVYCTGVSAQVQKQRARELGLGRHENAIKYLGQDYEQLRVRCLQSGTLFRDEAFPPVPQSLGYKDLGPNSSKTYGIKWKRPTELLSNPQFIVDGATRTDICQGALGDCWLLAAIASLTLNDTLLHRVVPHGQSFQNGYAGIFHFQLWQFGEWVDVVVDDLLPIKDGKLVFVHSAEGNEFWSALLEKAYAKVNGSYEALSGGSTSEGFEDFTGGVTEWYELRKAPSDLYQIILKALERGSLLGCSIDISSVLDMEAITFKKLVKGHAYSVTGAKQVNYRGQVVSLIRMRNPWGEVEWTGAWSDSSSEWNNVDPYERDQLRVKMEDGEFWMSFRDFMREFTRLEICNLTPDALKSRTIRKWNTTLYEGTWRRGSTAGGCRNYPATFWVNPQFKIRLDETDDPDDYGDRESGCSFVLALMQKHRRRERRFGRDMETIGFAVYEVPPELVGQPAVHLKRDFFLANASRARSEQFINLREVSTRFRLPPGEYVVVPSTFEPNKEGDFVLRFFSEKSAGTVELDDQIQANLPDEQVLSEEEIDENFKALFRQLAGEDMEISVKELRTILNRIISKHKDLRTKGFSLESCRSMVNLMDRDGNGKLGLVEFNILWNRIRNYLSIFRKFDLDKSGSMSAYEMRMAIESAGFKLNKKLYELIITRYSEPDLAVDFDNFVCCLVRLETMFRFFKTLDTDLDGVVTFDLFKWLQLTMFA
T1 sequence (P04632 1-268 partner): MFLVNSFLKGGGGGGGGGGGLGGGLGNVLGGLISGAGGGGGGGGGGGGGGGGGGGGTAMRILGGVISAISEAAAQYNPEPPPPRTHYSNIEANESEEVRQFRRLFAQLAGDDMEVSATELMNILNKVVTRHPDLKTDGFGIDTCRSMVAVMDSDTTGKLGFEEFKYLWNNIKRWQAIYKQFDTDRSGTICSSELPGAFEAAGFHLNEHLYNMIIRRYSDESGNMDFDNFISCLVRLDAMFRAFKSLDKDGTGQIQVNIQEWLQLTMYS
Put plainly: Calpain I kinetic fluorescence enzyme inhibition assay. It is filed as biochemical. Particulars: apparent Ki from IC50 by Cheng-Prussoff. The protocol:
Testing for blockade of the corresponding enzymic activities was carried out by means of kinetic fluorescence assays (excitation 390 nm, emission 460 nm).
Apparent Ki values were calculated from the experimentally determined IC50 values by the Cheng-Prussoff relation assuming a reversible competitive enzyme inhibition.
20 nM calpain-I—isolated from human erythrocytes (Calbiochem #208713), 100 μM Suc-Leu-Tyr-AMC (Bachem #I-1355) as substrate in buffer with 62 mM imidazole, 0.3 mM CaCl2, 0.10% CHAPS, 0.05% BSA, 1 mM DTT at pH 7.3 and room temperature.

Where a name gives a salt, the structure may show the parent alone. Bounds are passed on as bounds.

With `NC(=O)C(=O)C(Cc1ccccc1)NC(=O)c1cccnc1-n1ccc(CN2CCC3(CC2)COC3)n1` (centres unmarked) [Example 17, 2-(3-(2-Oxa-7-azaspiro[3.5]nonan-7-ylmethyl)-1H-pyrazol-1-yl)-N-(4-amino-3,4-dioxo-1-phenylbutan-2-yl)nicotinamide trifluoroacetate], the Ki is < 250 nM.
Take `NC(=O)C(=O)C(Cc1ccccc1)NC(=O)c1cccnc1-n1cc2c(n1)CCN(CC1CC1)C2` (centres unmarked) [Example 41, N-(4-Amino-3,4-dioxo-1-phenylbutan-2-yl)-2-(5-(cyclopropylmethyl)-4,5,6,7-tetrahydro-2H-pyrazolo[4,3-c]pyridin-2-yl)nicotinamide]: the Ki is < 250 nM.

Source of the values: patent publication US9150545B2, “Carboxamide compounds and their use as calpain inhibitors V” (ABBVIE DEUTSCHLAND GMBH & CO. KG, priority 2012, dated 2015).
